Assay results taken from ChEMBL document CHEMBL4270483, “Effect of Hops Derived Prenylated Phenols on TNF-α Induced Barrier Dysfunction in Intestinal Epithelial Cells” (J Nat Prod, 2017).
Active and inactive are the calls of the source. The calls are words filed in the database; no cut-off is given here.

Assays:
Caco-2 [1] = test: Cytotoxicity in human Caco2 cells assessed as reduction in ATP metabolism at 1 to 100 uM incubated for 24 hrs by cell-titer-Glo luminescent cell viability assay; assay type: ADME, cell-based; conditions: caco-2, 24 h
Caco-2 [2] = test: Inhibition of TNFalpha induced barrier dysfunctionin human Caco2 cells assessed as increase in transepithelial electrical resistance at 10 uM pre-treated on apical side for 1 hr before TNFalpha stimulation on basolateral side for 72 hrs by cellZScope monitoring device based assay; assay type: functional, cell-based
Caco-2 [3] = test: Effect on barrier function in human Caco2 cells assessed as LY transport at 10 uM pre-treated on apical side for 1 hr and measured after 48 hrs; assay type: ADME, cell-based; conditions: caco-2, 48 h
Caco-2 [4] = test: Inhibition of TNFalpha induced barrier dysfunctionin human Caco2 cells assessed as increase in transepithelial electrical resistance at 10 uM treated on apical side for 1 hr post TNFalpha stimulation on basolateral side for 24 hrs and measured after 72 hrs by cellZScope monitoring device based assay; assay type: functional, cell-based
Caco-2 [5] = test: Inhibition of TNFalpha induced barrier dysfunctionin human Caco2 cells assessed as prevention of morphological changes in ZO1 protein at 10 uM pre-treated on apical side for 1 hr before TNFalpha stimulation on basolateral side for 48 hrs by confocal laser scanning microscopy; assay type: functional, cell-based
Caco-2 [6] = test: Increase in transepithelial electrical resistance in human Caco2 cells at 10 uM pre-treated on apical side and measured after 36 to 72 hrs; assay type: functional, cell-based
Caco-2 [7] = test: Stimulation of growth in human Caco2 cells assessed as […] in ATP metabolism at 10 uM incubated for 24 hrs by cell-titer-Glo luminescent cell viability assay; assay type: functional, cell-based
Caco-2 [8] = test: Cytotoxicity in human Caco2 cells assessed as reduction in ATP metabolism at 50 to 100 uM incubated for 24 hrs by cell-titer-Glo luminescent cell viability assay; assay type: ADME, cell-based; conditions: caco-2, 24 h
Caco-2 [9] = test: Cytotoxicity in human Caco2 cells assessed as reduction in ATP metabolism at 100 uM incubated for 24 hrs by cell-titer-Glo luminescent cell viability assay; assay type: ADME, cell-based; conditions: caco-2, 24 h
Caco-2 [10] = test: Cytotoxicity in human Caco2 cells assessed as reduction in ATP metabolism at 1 to 50 uM incubated for 24 hrs by cell-titer-Glo luminescent cell viability assay; assay type: ADME, cell-based; conditions: caco-2, 24 h

Structure (SMILES) | Activity (Caco-2 [1]) | inhibition (Caco-2 [2]) | Activity (Caco-2 [3]) | inhibition (Caco-2 [4]) | inhibition (Caco-2 [5]) | Activity (Caco-2 [6]) | Activity (Caco-2 [7]) | Activity (Caco-2 [8]) [%] | Activity (Caco-2 [9]) [%] | Activity (Caco-2 [10])
CC(C)=CCc1c(O)cc(O)c2c1O[C@H](c1ccc(O)cc1)CC2=O | Non-Toxic | Active | Non-Toxic | Active | Active | Active |  |  |  | 
COc1cc(O)c(CC=C(C)C)c(O)c1C(=O)/C=C/c1ccc(O)cc1 [XANTHOHUMOL] |  | inactive | Non-Toxic | inactive | inactive | Active | Active | 55.3 |  | 
CC(C)=CCc1c(O)cc2c(c1O)C(=O)CC(c1ccc(O)cc1)O2 (centres undefined) |  | Active | Non-Toxic | inactive |  | Active |  |  | 18 | Non-Toxic
